Experimental findings from PubChem BioAssay AID1259407 (Chemical Carcinogenesis Research Information System (CCRIS), 2018) are described below.

Calls of active or inactive are those of the source. How the calls were made is not given here.

The subject of this series is CCRIS mutagenicity, Ames/micronucleus/aberration tests. As to the kind of experiment: CCRIS mutagenicity studies.
Where [1] appears, read: Test System: AMES SALMONELLA TYPHIMURIUM, Strain/Indicator: TA98, Metabolic Activation: NONE, Method: STANDARD PLATE.
Where [2] appears, read: Test System: AMES SALMONELLA TYPHIMURIUM, Strain/Indicator: TA98, Metabolic Activation: RAT, LIVER, S-9, AROCLOR 1254, Method: STANDARD PLATE.
The mark [3] stands for this setting: Test System: AMES SALMONELLA TYPHIMURIUM, Strain/Indicator: TA100, Metabolic Activation: NONE, Method: STANDARD PLATE.
[4] abbreviates: Test System: AMES SALMONELLA TYPHIMURIUM, Strain/Indicator: TA1535, Metabolic Activation: NONE, Method: STANDARD PLATE.
Setting [5] is: Test System: AMES SALMONELLA TYPHIMURIUM, Strain/Indicator: TA1537, Metabolic Activation: NONE, Method: STANDARD PLATE.
Where [6] appears, read: Test System: AMES SALMONELLA TYPHIMURIUM, Strain/Indicator: TA1538, Metabolic Activation: NONE, Method: STANDARD PLATE.
[7] abbreviates: Test System: AMES SALMONELLA TYPHIMURIUM, Strain/Indicator: TA98(NR), Metabolic Activation: NONE, Method: STANDARD PLATE.
[8] abbreviates: Test System: E. COLI, Strain/Indicator: WP2 UVRA, Metabolic Activation: NONE, Method: STANDARD PLATE.

For the compound `FC(F)(F)c1ccc(Cl)cc1`, the mutagenic call reads like this: (Test System: AMES SALMONELLA TYPHIMURIUM, Strain/Indicator: TA98, Metabolic Activation: HAMSTER, LIVER, S-9, AROCLOR 1254, Method: STANDARD PLATE) “inactive; negative”; under setting [1], “inactive; negative”; under setting [2], “inactive; negative”; (Test System: AMES SALMONELLA TYPHIMURIUM, Strain/Indicator: TA100, Metabolic Activation: HAMSTER, LIVER, S-9, AROCLOR 1254, Method: STANDARD PLATE) “inactive; negative”; under setting [3], “inactive; negative”; (Test System: AMES SALMONELLA TYPHIMURIUM, Strain/Indicator: TA100, Metabolic Activation: RAT, LIVER, S-9, AROCLOR 1254, Method: STANDARD PLATE) “inactive; negative”. Also, the mutagenic call was “inactive; negative” (Test System: AMES SALMONELLA TYPHIMURIUM, Strain/Indicator: TA1535, Metabolic Activation: HAMSTER, LIVER, S-9, AROCLOR 1254, Method: STANDARD PLATE); “inactive; negative” under setting [4]; “inactive; negative” (Test System: AMES SALMONELLA TYPHIMURIUM, Strain/Indicator: TA1535, Metabolic Activation: RAT, LIVER, S-9, AROCLOR 1254, Method: STANDARD PLATE); “inactive; negative” (Test System: AMES SALMONELLA TYPHIMURIUM, Strain/Indicator: TA1537, Metabolic Activation: HAMSTER, LIVER, S-9, AROCLOR 1254, Method: STANDARD PLATE); “inactive; negative” under setting [5]; “inactive; negative” (Test System: AMES SALMONELLA TYPHIMURIUM, Strain/Indicator: TA1537, Metabolic Activation: RAT, LIVER, S-9, AROCLOR 1254, Method: STANDARD PLATE). Besides, the mutagenic call is, setting by setting: (Test System: AMES SALMONELLA TYPHIMURIUM, Strain/Indicator: TA1538, Metabolic Activation: HAMSTER, LIVER, S-9, AROCLOR 1254, Method: STANDARD PLATE) “inactive; negative”; under setting [6], “inactive; negative”; (Test System: AMES SALMONELLA TYPHIMURIUM, Strain/Indicator: TA1538, Metabolic Activation: RAT, LIVER, S-9, AROCLOR 1254, Method: STANDARD PLATE) “inactive; negative”; (Test System: MOUSE LYMPHOMA, Strain/Indicator: L5178Y (TK+/TK-), Metabolic Activation: NONE, Method: SUSPENSION/PLATE) “inactive; negative. reevaluation of results: negative”; (Test System: MOUSE LYMPHOMA, Strain/Indicator: L5178Y (TK+/TK-), Metabolic Activation: RAT, LIVER, S-9, AROCLOR 1254, Method: SUSPENSION/PLATE) “inactive; negative. reevaluation of results: equivocal”.
In the case of `CCCCCCCOP(=S)([S-])OCCCCCCC.CCCCCCCOP(=S)([S-])OCCCCCCC.[Zn+2]`, the mutagenic call is “inactive; negative” under setting [1]; “inactive; negative” (Test System: AMES SALMONELLA TYPHIMURIUM, Strain/Indicator: TA98, Metabolic Activation: RAT, LIVER, S-9, Method: STANDARD PLATE); “inactive; negative” under setting [3]; “inactive; negative” (Test System: AMES SALMONELLA TYPHIMURIUM, Strain/Indicator: TA100, Metabolic Activation: RAT, LIVER, S-9, Method: STANDARD PLATE); “inactive; negative” (Test System: AMES SALMONELLA TYPHIMURIUM, Strain/Indicator: TA102, Metabolic Activation: NONE, Method: STANDARD PLATE); “inactive; negative” (Test System: AMES SALMONELLA TYPHIMURIUM, Strain/Indicator: TA102, Metabolic Activation: RAT, LIVER, S-9, Method: STANDARD PLATE).
In the case of `O=[N+]([O-])c1cc2cccc([N+](=O)[O-])c2c2ccccc12`, the mutagenic call is “active; positive” (Test System: AMES SALMONELLA TYPHIMURIUM, Strain/Indicator: TA98(1,8-DNP6), Metabolic Activation: NONE, Method: STANDARD PLATE); “active; positive” under setting [7]; “active; positive” under setting [1]; “active; positive” under setting [3]; “active; positive” (Test System: AMES SALMONELLA TYPHIMURIUM, Strain/Indicator: YG1021, Metabolic Activation: NONE, Method: STANDARD PLATE); “active; positive” (Test System: AMES SALMONELLA TYPHIMURIUM, Strain/Indicator: YG1024, Metabolic Activation: NONE, Method: STANDARD PLATE). Besides, the mutagenic call was “active; positive” (Test System: AMES SALMONELLA TYPHIMURIUM, Strain/Indicator: YG1026, Metabolic Activation: NONE, Method: STANDARD PLATE) and “active; positive” (Test System: AMES SALMONELLA TYPHIMURIUM, Strain/Indicator: YG1029, Metabolic Activation: NONE, Method: STANDARD PLATE).
`O[C@@H]1[C@@H]2O[C@@H]2c2cc3c(ccc4ccccc43)cc2[C@H]1O`: the mutagenic call (Test System: CHINESE HAMSTER V-79, Strain/Indicator: V-79/8-AZAGUANINE, Metabolic Activation: NONE, Method: STANDARD PLATE) is “active; positive”.
Consider `Oc1ccc2ccccc2c1N=Nc1ccc(N=Nc2ccccc2)cc1`, for which the mutagenic call under setting [1] is “inactive; negative” and the mutagenic call under setting [3] is “inactive; negative”.
`CCCC(=O)C1c2cccc(O)c2C(=O)c2c(O)cccc21`: the mutagenic call is “active; positive” under setting [5]; “active; positive” (Test System: AMES SALMONELLA TYPHIMURIUM, Strain/Indicator: TA1537, Metabolic Activation: RAT, LIVER, S-9, PHENOBARBITAL AND BETA-NAPHTHOFLAVONE, Method: STANDARD PLATE); “inactive; negative” (Test System: E. COLI, Strain/Indicator: WP2, Metabolic Activation: NONE, Method: STANDARD PLATE); “inactive; negative” (Test System: E. COLI, Strain/Indicator: WP2, Metabolic Activation: RAT, LIVER, S-9, AROCLOR 1254, Method: STANDARD PLATE); “inactive; negative” under setting [8]; “inactive; negative” (Test System: E. COLI, Strain/Indicator: WP2 UVRA, Metabolic Activation: RAT, LIVER, S-9, AROCLOR 1254, Method: STANDARD PLATE).
With `Nc1ccc2[nH]c3ccccc3c2c1[N+](=O)[O-]`, the mutagenic call under setting [1] is “active; positive”; the mutagenic call (Test System: AMES SALMONELLA TYPHIMURIUM, Strain/Indicator: TA98, Metabolic Activation: RAT, LIVER, S-9, PHENOBARBITAL, Method: STANDARD PLATE) is “active; positive”; the mutagenic call under setting [3] is “active; positive”; the mutagenic call (Test System: AMES SALMONELLA TYPHIMURIUM, Strain/Indicator: TA100, Metabolic Activation: RAT, LIVER, S-9, PHENOBARBITAL, Method: STANDARD PLATE) is “inactive; negative”; the mutagenic call under setting [5] is “active; positive”; the mutagenic call (Test System: AMES SALMONELLA TYPHIMURIUM, Strain/Indicator: TA1537, Metabolic Activation: RAT, LIVER, S-9, PHENOBARBITAL, Method: STANDARD PLATE) is “active; positive”. The mutagenic call is, setting by setting: under setting [6], “active; positive”; (Test System: AMES SALMONELLA TYPHIMURIUM, Strain/Indicator: TA1538, Metabolic Activation: RAT, LIVER, S-9, PHENOBARBITAL, Method: STANDARD PLATE) “active; positive”; (Test System: AMES SALMONELLA TYPHIMURIUM, Strain/Indicator: TA1977, Metabolic Activation: NONE, Method: STANDARD PLATE) “active; positive”; (Test System: AMES SALMONELLA TYPHIMURIUM, Strain/Indicator: TA1977, Metabolic Activation: RAT, LIVER, S-9, PHENOBARBITAL, Method: STANDARD PLATE) “active; positive”.
For `CC(=O)c1ccc(NO)cc1`, the mutagenic call was “active; positive” under setting [3]; “inactive; negative” under setting [4]; “active; positive” (Test System: E. COLI, Strain/Indicator: WP2 UVRA(P), Metabolic Activation: NONE, Method: STANDARD PLATE); “inactive; negative” (Test System: E. COLI, Strain/Indicator: WP2 UVRA, Metabolic Activation: NONE, Method: FLUCTUATION TEST); “active; positive” under setting [8].
Take `O=[N+]([O-])c1cc2c(cc3ccc4cccc5ccc2c3c45)o1`: the mutagenic call reads like this: under setting [7], “active; positive”; (Test System: AMES SALMONELLA TYPHIMURIUM, Strain/Indicator: TA98(NR), Metabolic Activation: RAT, LIVER, S-9, AROCLOR 1254, Method: STANDARD PLATE) “active; positive”; under setting [1], “active; positive”; under setting [2], “active; positive”.
Regarding `[CH3][Sn]([CH3])([CH3])[CH3]`, the mutagenic call is, setting by setting: (Test System: AMES SALMONELLA TYPHIMURIUM, Strain/Indicator: TA98, Metabolic Activation: NONE, Method: SUSPENSION/PLATE) “inactive; negative”; (Test System: AMES SALMONELLA TYPHIMURIUM, Strain/Indicator: TA100, Metabolic Activation: NONE, Method: SUSPENSION/PLATE) “inactive; negative”.
